Measurements published in patent publication US9790229B2, “Bruton's tyrosine kinase inhibitors” (priority 2009, dated 2017).
Like-named read-outs stand apart in the source and are kept apart here.

Target: BTK (Homo sapiens (Human), UniProt Q06187)
Assay: In vitro BTK kinase assay: BTK-POLYGAT-LS ASSAY
[1] = read-out: IC50 (10 uM ATP), 10 uM ATP, in vitro Btk kinase assay, Example 41

Sequence of BTK (Q06187 whole entry): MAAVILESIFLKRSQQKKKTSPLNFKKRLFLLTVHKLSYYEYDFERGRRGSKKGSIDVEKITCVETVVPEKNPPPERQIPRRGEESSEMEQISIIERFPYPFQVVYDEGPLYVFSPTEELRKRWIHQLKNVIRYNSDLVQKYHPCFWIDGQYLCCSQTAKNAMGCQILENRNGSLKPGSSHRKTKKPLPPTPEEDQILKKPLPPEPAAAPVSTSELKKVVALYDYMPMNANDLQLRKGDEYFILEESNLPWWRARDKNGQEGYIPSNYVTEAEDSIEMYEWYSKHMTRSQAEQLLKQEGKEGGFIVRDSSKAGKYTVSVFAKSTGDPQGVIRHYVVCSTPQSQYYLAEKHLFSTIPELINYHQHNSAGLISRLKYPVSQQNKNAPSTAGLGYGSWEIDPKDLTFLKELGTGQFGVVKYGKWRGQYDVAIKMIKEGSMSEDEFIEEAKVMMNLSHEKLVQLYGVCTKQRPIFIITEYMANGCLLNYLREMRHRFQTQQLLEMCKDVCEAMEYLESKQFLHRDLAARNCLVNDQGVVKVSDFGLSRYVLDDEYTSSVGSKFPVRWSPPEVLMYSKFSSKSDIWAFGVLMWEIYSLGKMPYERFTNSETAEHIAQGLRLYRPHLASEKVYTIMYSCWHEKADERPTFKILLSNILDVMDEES

SMILES	IC50	IC50 [1]	also measured
N#Cc1c(N)ncnc1N1CCCC(c2ccc(OC(F)(F)F)c(NC(=O)C3CCCCC3)c2)C1 (stereo not drawn) [compound 144, N-(5-(1-(6-amino-5-cyanopyrimidin-4-yl)piperidin-3-yl)-2-(trifluoromethoxy)phenyl)cyclohexanecarboxamide]	1000 to 10000 nM	–	–
O=C(Nc1ccc(Cl)cc1)Nc1cccc(C2CCCN(c3ncnc4[nH]ccc34)C2)c1 (stereo not drawn) [Cmpd 27, 1-(3-(1-(7H-pyrrolo[2,3-d]pyrimidin-4-yl)piperidin-3-yl)phenyl)-3-(4-chlorophenyl)urea]	1000 to 10000 nM	–	–
O=C(Nc1cc(C2CCCN(c3ncnc4[nH]ccc34)C2)ccc1OC(F)(F)F)c1ccccc1 (stereo not drawn) [Cmpd 85, N-(5-(1-(7H-pyrrolo[2,3-d]pyrimidin-4-yl)piperidin-3-yl)-2-(trifluoromethoxy)phenyl)benzamide]	100 to 999 nM	–	–
O=C(NCC1CCCNC1)Nc1cccc(C2CCCN(c3ncnc4[nH]ccc34)C2)c1 (stereo not drawn) [compound 229]	–	> 10000 nM	–
O=C(Nc1cccc(C2CCCN(c3ncnc4[nH]ccc34)C2)c1)NC1CCC1 (stereo not drawn) [compound 204]	1000 to 10000 nM	–	–
O=C1Cc2c(ncnc2N2CCCC(c3cccc(NC(=O)Nc4ccccc4)c3)C2)N1 (stereo not drawn) [Cmpd 96, 1-(3-(1-(6-oxo-6,7-dihydro-5H-pyrrolo[2,3-d]pyrimidin-4-yl)piperidin-3-yl)phenyl)-3-phenylurea]	1000 to 10000 nM	–	–
O=C(Nc1ccccc1)Nc1cccc(C2CCCN(c3ncnc4[nH]cnc34)C2)c1 (stereo not drawn) [Cmpd 103, 1-(3-(1-(9H-Purin-6-yl)piperidin-3-yl)phenyl)-3-phenylurea]	100 to 999 nM	–	–
Nc1ncnc(N2CCC[C@@H](N3CCCC(Nc4cc(Cl)cc(C(F)(F)F)c4)C3=O)C2)c1F (stereo partly drawn) [compound 308, (3′R)-1′-(6-Amino-5-fluoropyrimidin-4-yl)-3-(3-chloro-5-(trifluoromethyl)phenylamino)-1,3′-bipiperidin-2-one]	–	–	IC50 (read-out: IC50 (10 uM ATP)): < 100 nM
C[C@H]1CCCN1c1ccccc1NC(=O)Nc1cccc(C2CCCN(c3ncnc4[nH]ccc34)C2)c1 (stereo partly drawn) [compound 188]	1000 to 10000 nM	–	–
CC(C)(O)c1ccccc1NC(=O)Nc1cccc(C2CCCN(c3ncnc4[nH]ccc34)C2)c1 (stereo not drawn) [compound 195]	1000 to 10000 nM	–	–
Nc1ncnc(N2CC(N3CCCC(Nc4cc(F)cc(Cl)c4)C3=O)CC(F)(F)C2)c1F (stereo not drawn) [compound 359]	–	< 100 nM	–
CN(C)c1ccccc1NC(=O)Nc1cccc(C2CCCN(c3ncnc4[nH]ccc34)C2)c1 (stereo not drawn) [Cmpd 34, 1-(3-(1-(7H-pyrrolo[2,3-d]pyrimidin-4-yl)piperidin-3-yl)phenyl)-3-(2-(dimethylamino)phenyl)urea]	1000 to 10000 nM	–	–
O=C1C(Nc2cc(Cl)cc(C(F)(F)F)c2)CCCN1[C@@H]1CCCN(c2ncnc3[nH]ncc23)C1 (stereo partly drawn) [compound 305, (3′R)-3-(3-Chloro-5-(trifluoromethyl)phenylamino)-1′-(1H-pyrazolo[3,4-d]pyrimidin-4-yl)-1,3′-bipiperidin-2-one]	–	< 100 nM	–
O=C(NC[C@H]1CCCC[C@@H]1O)Nc1cccc(C2CCCN(c3ncnc4[nH]ccc34)C2)c1 (stereo partly drawn) [compound 199]	1000 to 10000 nM	–	–
Cc1ccc(C2CCCN(c3ncnc4[nH]ccc34)C2)cc1NC(=O)c1ccccc1 (stereo not drawn) [Cmpd 82, N-(5-(1-(7H-pyrrolo[2,3-d]pyrimidin-4-yl)piperidin-3-yl)-2-methylphenyl)benzamide]	–	> 10000 nM	–
Nc1ncnc(N2CCC[C@@H](N3CCCC(Nc4ccc(C(=O)O)cc4)C3=O)C2)c1F (stereo partly drawn) [compound 298, 4-((3′R)-1′-(6-Amino-5-fluoropyrimidin-4-yl)-2-oxo-1,3′-bipiperidin-3-ylamino)benzoic acid]	–	> 10000 nM	–
O=C(Nc1cccc(C2CCCN(c3ncnc4[nH]ccc34)C2)c1)Nc1ccccc1N1C[C@@H](O)[C@@H](O)C1 (stereo partly drawn) [compound 148]	–	< 100 nM	–
Cc1cc(NC(=O)Nc2cccc(C3CCCN(c4ncnc5[nH]ccc45)C3)c2)n(CCN(C)C)n1 (stereo not drawn) [compound 230]	–	> 10000 nM	–
Nc1ncnc(N2CCC[C@@H](N3CCC[C@H](Nc4cc(Cl)cc(C(F)(F)F)c4)C3=O)C2)c1F [compound 312, (3S,3′R)-1′-(6-Amino-5-fluoropyrimidin-4-yl)-3-(3-chloro-5-(trifluoromethyl)phenylamino)-1,3′-bipiperidin-2-one]	–	–	IC50 (read-out: IC50 (10 uM ATP)): < 100 nM
O=C(Nc1cccc(Cl)c1)Nc1cccc(C2CCCN(c3ncnc4[nH]ccc34)C2)c1 (stereo not drawn) [Cmpd 26, 1-(3-(1-(7H-pyrrolo[2,3-d]pyrimidin-4-yl)piperidin-3-yl)phenyl)-3-(3-chlorophenyl)urea]	1000 to 10000 nM	–	–
O=C1[C@H](Nc2cc(Cl)cc(Cl)c2)CCN1[C@@H]1CCCN(c2ncnc3[nH]ccc23)C1 [compound 323, (R)-1-((R)-1-(7H-Pyrrolo[2,3-d]pyrimidin-4-yl)piperidin-3-yl)-3-(3,5-dichlorophenylamino)pyrrolidin-2-one]	–	< 100 nM	–
CC(C)(C#N)c1ccccc1NC(=O)Nc1cccc(C2CCCN(c3ncnc4[nH]ccc34)C2)c1 (stereo not drawn) [compound 260]	–	> 10000 nM	–
CN1CCCCC1CNC(=O)Nc1cccc(C2CCCN(c3ncnc4[nH]ccc34)C2)c1 (stereo not drawn) [compound 228]	–	> 10000 nM	–

SMILES	IC50	IC50 [1]	also measured
Nc1ncnc(N2CCC[C@@H](N3CC=CC[C@@H](Nc4cc(F)cc(Cl)c4)C3=O)C2)c1F [compound 347, (R,Z)-1-((R)-1-(6-amino-5-fluoropyrimidin-4-yl)piperidin-3-yl)-3-(3-chloro-5-fluorophenylamino)-3,4-dihydro-1H-azepin-2(7H)-one]	–	< 100 nM	–
C[C@@H]1CCCN1c1ccccc1NC(=O)Nc1cccc(C2CCCN(c3ncnc4[nH]ccc34)C2)c1 (stereo partly drawn) [compound 159]	100 to 999 nM	–	–
Nc1ncnc(N2CC[C@H](C(F)(F)F)[C@@H](N3CCCC(Nc4cc(Cl)cc(Cl)c4)C3=O)C2)c1F (stereo partly drawn) [compound 334, trans 1′-(6-Amino-5-fluoropyrimidin-4-yl)-3-(3,5-dichlorophenylamino)-4′-(trifluoromethyl)-1,3′-bipiperidin-2-one]	–	< 100 nM	–
CCOC(=O)CCc1c(N)ncnc1N1CCCC(c2cccc(NC(=O)Nc3ccccc3)c2)C1 (stereo not drawn) [compound 253]	–	> 10000 nM	–
CCOC(=O)/C=C/c1c(N)ncnc1N1CCCC(c2cccc(NC(=O)Nc3ccccc3)c2)C1 (stereo not drawn) [compound 221]	–	> 10000 nM	–
O=C(Nc1cccc(C2CCCN(c3ncnc4[nH]ccc34)C2)c1)Nc1c(Cl)cccc1N1CCCC1 (stereo not drawn) [Cmpd 50, 1-(3-(1-(7H-pyrrolo[2,3-d]pyrimidin-4-yl)piperidin-3-yl)phenyl)-3-(2-chloro-6-(pyrrolidin-1-yl)phenyl)urea]	–	< 100 nM	–
Nc1ncnc(N2C[C@@H](F)C[C@@H](N3CCCC(Nc4cc(F)cc(Cl)c4)C3=O)C2)c1F (stereo partly drawn) [compound 279, (3′R, 5′S)-1′-(6-Amino-5-fluoropyrimidin-4-yl)-3-(3-chloro-5-fluorophenylamino)-5′-fluoro-1,3′-bipiperidin-2-one]	–	< 100 nM	–
O=C(Nc1cccc(C2CCCN(c3ncnc4[nH]ccc34)C2)c1)NC1CCCC1 (stereo not drawn) [compound 193]	1000 to 10000 nM	–	–
O=C(Nc1cccc(C2CN(c3ncnc4[nH]ccc34)CCN2CCO)c1)Nc1c(Cl)cccc1Cl (stereo not drawn) [compound 134, 1-(2,6-Dichlorophenyl)-3-(3-(1-(2-hydroxyethyl)-4-(7H-pyrrolo[2,3-d]pyrimidin-4-yl)piperazin-2-yl)phenyl)urea]	100 to 999 nM	–	–
O=C(Nc1cc(C2CCCN(c3ncnc4[nH]ccc34)C2)ccc1OC(F)(F)F)c1ccccc1F (stereo not drawn) [Cmpd 89, N-(5-(1-(7H-pyrrolo[2,3-d]pyrimidin-4-yl)piperidin-3-yl)-2-(trifluoromethoxy)phenyl)-2-fluorobenzamide]	1000 to 10000 nM	–	–
NC(=O)Cc1ccccc1NC(=O)Nc1cccc(C2CCCN(c3ncnc4[nH]ccc34)C2)c1 (stereo not drawn) [compound 261]	–	> 10000 nM	–
COc1ncccc1NC(=O)Nc1cccc(C2CCCN(c3ncnc4[nH]ccc34)C2)c1 (stereo not drawn) [compound 215]	1000 to 10000 nM	–	–
O=C(Nc1cc(C2CCCN(c3ncnc4[nH]ccc34)C2)cc(C(F)(F)F)c1)c1ccccc1 (stereo not drawn) [Cmpd 84, N-(3-(1-(7H-pyrrolo[2,3-d]pyrimidin-4-yl)piperidin-3-yl)-5-(trifluoromethyl)phenyl)benzamide]	–	> 10000 nM	–
CO[C@H]1CCN(c2ccccc2NC(=O)Nc2cccc(C3CCCN(c4ncnc5[nH]ccc45)C3)c2)C1 (stereo partly drawn) [compound 157]	–	< 100 nM	–
O=C(Nc1ccccc1)Nc1cccc(C2CCCN(c3ncnc4[nH]ccc34)C2)n1 (stereo not drawn) [compound 118, 1-(6-(1-(7H-pyrrolo[2,3-d]pyrimidin-4-yl)piperidin-3-yl)pyridin-2-yl)-3-phenylurea]	1000 to 10000 nM	–	–
CC(C)(C)c1ccc(NC(=O)Nc2cccc(C3CCCN(c4ncnc5[nH]ccc45)C3)c2)cc1 (stereo not drawn) [compound 263]	–	> 10000 nM	–
O=C(Nc1cccc(C2CCCN(c3ncnc4[nH]ccc34)C2)c1)c1cccc(O)c1 (stereo not drawn) [compound 15, N-(3-(1-(7H-pyrrolo[2,3-d]pyrimidin-4-yl)piperidin-3-yl)phenyl)-3-hydroxybenzamide]	–	> 10000 nM	–
N#Cc1c(N)ncnc1N1CCCC(c2cccc(NC(=O)Nc3ccccc3)c2)C1 (stereo not drawn) [Cmpd 102, 1-(3-(1-(6-Amino-5-cyanopyrimidin-4-yl)piperidin-3-yl)phenyl)-3-phenylurea]	100 to 999 nM	–	–
O=c1nc(Nc2cccc(C3CCCN(c4ncnc5[nH]ccc45)C3)c2)[nH]c2c1CCCC2 (stereo not drawn) [compound 120, 2-(3-(1-(7H-pyrrolo[2,3-d]pyrimidin-4-yl)piperidin-3-yl)phenylamino)-5,6,7,8-tetrahydroquinazolin-4(1H)-one]	1000 to 10000 nM	–	–
O=C1C(Nc2ccccc2)CCCN1[C@@H]1CCCN(c2ncnc3[nH]ccc23)C1 (stereo partly drawn) [compound 271, (3′R)-3-(phenylamino)-1′-(7H-pyrrolo[2,3-d]pyrimidin-4-yl)-1,3′-bipiperidin-2-one]	100 to 999 nM	–	–
Nc1ncnc(N2CCC[C@@H](N3CCC[C@@H](Nc4cc(Cl)cc(C(F)(F)F)c4)C3=O)C2)c1F [compound 311, (3R,3′R)-1′-(6-Amino-5-fluoropyrimidin-4-yl)-3-(3-chloro-5-(trifluoromethyl)phenylamino)-1,3′-bipiperidin-2-one]	–	–	IC50 (read-out: IC50 (10 uM ATP)): < 100 nM
Nc1ncnc(N2CCC[C@@H](N3CCCC(Nc4ccccc4S(=O)(=O)c4ccccc4)C3=O)C2)c1F (stereo in doubt) [compound 319, 1′-(6-Amino-5-fluoropyrimidin-4-yl)-3-(2-(phenylsulfonyl)phenylamino)-1,3′-bipiperidin-2-one]	–	< 100 nM	–
